Experimental data from patent publication US8883827B2, “Azole derivatives as WTN pathway inhibitors” (Oslo University Hospital HF, priority 2009, dated 2014).

Assays:
Xenopus embryos = assay: Xenopus laevis axis duplication assay (XWnt8 mRNA); type: in vivo; conditions: 0.4 pmol injected, scored after 36 h; compared to DMSO controls
Protocol: Injection of ectopic XWnt8 mRNA into the prospective ventral side activates canonical Wnt pathway signaling and induces a secondary body axis. This assay provides a reliable method to test biological effects of compounds with potential effects on Wnt signaling. […] The embryos were incubated at 19° C. and axis duplication was scored after 36 hours.

SW480 cells = assay: BrdU/PI cell cycle analysis; type: cell-based; conditions: 25 μM, 72 h
Protocol: Cell cycle progression was measured by BrdU labeling of cultured cells that were counterstained with propidium iodide (PI).
SW480 cells were seeded and exposed to compounds for 3 days changing medium every day as described in Example 24. After a 30 minute incubation with 10 μM BrdU, the cells were trypsinized and stained with 1:100 diluted mouse anti-BrdU antibody (Roche) and Alexa Fluor®488 goat anti-mouse antibody (A 11001, Invitrogen). Counterstaining was done with 10 μg/mL PI in 200 μg/mL RNase I (both Sigma). Samples were analyzed on the PAS-PPCS flow cytometer and cell sorter (Partec).

SW480 colorectal cells = assay: SW480 xenograft in CB17/SCID mice; type: in vivo
Protocol: SW480 colorectal cells were injected subcutaneously into CB17/SCID mice and palpable tumors were detected within 7 days in 50% of the mice. Randomized groups of mice were injected (i.p.) daily with compound No. 1 at doses of […] or 30 mg/kg (delivered daily for five days followed by a 2-day pause) at termination, plasma was collected and tumors were isolated and weighed. 40 female […] (Taconic) were injected subcutaneously (s.c.) at the right posterior flank with 10^7 SW480 cells diluted in 100 μl PBS. Injections were initiated when tumor formation was visible in 50% of the animals (7 days). Mice were randomized and divided into three treatment groups: 150 mg/kg compound No. 1, 300 mg/kg compound No. 1 and vehicle control 1% Tween® 80 (Sigma). Daily injections (200 μl, i.p.) followed (two day injection intermissions after every fifth injection day) until experiment end (29 days). At the termination day, 24 hours after the last injection, blood was collected after cardiac puncture and the tumors were removed and weighed. The compound concentration in plasma and tumors was determined using an on-line and off-line Solid Phase Extraction-Capillary Liquid Chromatography ([…]) instrumentation coupled to a Time of Flight (TOF) mass spectrometer, as previously described (Wilson, S. R. et al., J. Sep. Sci. 28: 1751-1758, 2005). A Zorbax SB C18 5 μm 150×0.3 mm column (Agilent, […], Calif., USA) was used for separation, and a Knauer K-2600 UV detector was used as a complimentary detector. RNA was isolated from representative groups of tumors (n=5) and analysed by real-time RT-PCR as described in Example 25 for expression of Sp5. Results were calculated as the ratio of expression of Sp5 to a control gene (hGUSB). As described in standard protocols, immunostaining was performed with rabbit polyclonal smooth muscle actin (Abcam) and monoclonal β-catenin (BD Transduction LaboratoriesTM), both diluted 1:1000. Secondary antibodies used were 1:500 diluted Alexa Fluor® 594 goat anti-rabbit antibody and Alexa Fluor® 488 goat anti-mouse antibody. The sections were imaged by a Zeiss Axiovert 200M Fluorescence/Live cell Imaging Microscope with X^40 magnification and the same exposure times.

[1] = tested on: panel of phosphatases and kinases; assay: KinaseProfiler phosphatase and kinase panel (whole); type: biochemical; conditions: 10 μM compound
CD45(h) = target: T1, CD45(h) (Homo sapiens, UniProt P08575); assay: Phosphatase screen; type: biochemical; conditions: 0.1% DMSO control = 100%
T1 construct: purchased Millipore (KinaseProfiler service)

DUSP22(h) = target: T2, DUSP22(h) (Homo sapiens, UniProt Q9NRW4); assay: Phosphatase screen; type: biochemical; conditions: 0.1% DMSO control = 100%
T2 construct: purchased Millipore (KinaseProfiler service)

PTPb(h) = target: T3, PTPb(h) (Homo sapiens, UniProt P23467); assay: Phosphatase screen; type: biochemical; conditions: 0.1% DMSO control = 100%
T3 construct: purchased Millipore (KinaseProfiler service)

YopH(y) = conditions: 10 μM
CDK9/cyclin T1(h) = target: T4, CDK9/cyclin T1(h) (Homo sapiens, UniProt P50750); assay: Kinase screen; type: biochemical; conditions: 0.1% DMSO control = 100%
T4 construct: purchased Millipore (KinaseProfiler service)

CK2(h) = target: T5, CK2(h) (Homo sapiens, UniProt P68400); assay: Kinase screen; type: biochemical; conditions: 0.1% DMSO control = 100%
T5 construct: purchased Millipore (KinaseProfiler service)

CK2α2(h) = target: T6, CK2α2(h) (Homo sapiens, UniProt P19784); assay: Kinase screen; type: biochemical; conditions: 0.1% DMSO control = 100%
T6 construct: purchased Millipore (KinaseProfiler service)

EphA5(h) = target: T7, EphA5(h) (Homo sapiens, UniProt P54756); assay: Kinase screen; type: biochemical; conditions: 0.1% DMSO control = 100%
T7 construct: purchased Millipore (KinaseProfiler service)

EphB4(h) = target: T8, EphB4(h) (Homo sapiens, UniProt P54760); assay: Kinase screen; type: biochemical; conditions: 0.1% DMSO control = 100%
T8 construct: purchased Millipore (KinaseProfiler service)

GRK5(h) = target: T9, GRK5(h) (Homo sapiens, UniProt P34947); assay: Kinase screen; type: biochemical; conditions: 0.1% DMSO control = 100%
T9 construct: purchased Millipore (KinaseProfiler service)

GSK3β(h) = target: T10, GSK3β(h) (Homo sapiens, UniProt P49841); assay: Kinase screen; type: biochemical; conditions: 0.1% DMSO control = 100%
T10 construct: purchased Millipore (KinaseProfiler service)

IGF-1R(h) = target: T11, IGF-1R(h) (Homo sapiens, UniProt P08069); assay: Kinase screen; type: biochemical; conditions: 0.1% DMSO control = 100%
T11 construct: purchased Millipore (KinaseProfiler service)

IKKα(h) = target: T12, IKKα(h) (Homo sapiens, UniProt O15111); assay: Kinase screen; type: biochemical; conditions: 0.1% DMSO control = 100%
T12 construct: purchased Millipore (KinaseProfiler service)

JAK2(h) = target: T13, JAK2(h) (Homo sapiens, UniProt O60674); assay: Kinase screen; type: biochemical; conditions: 0.1% DMSO control = 100%
T13 construct: purchased Millipore (KinaseProfiler service)

KDR(h) = target: T14, KDR(h) (Homo sapiens, UniProt P35968); assay: Kinase screen; type: biochemical; conditions: 0.1% DMSO control = 100%
T14 construct: purchased Millipore (KinaseProfiler service)

MAPK2(h) = target: T15, MAPK2(h) (Homo sapiens, UniProt P28482); assay: Kinase screen; type: biochemical; conditions: 0.1% DMSO control = 100%
T15 construct: purchased Millipore (KinaseProfiler service)

PKCθ(h) = target: T16, PKCθ(h) (Homo sapiens, UniProt Q04759); assay: Kinase screen; type: biochemical; conditions: 0.1% DMSO control = 100%
T16 construct: purchased Millipore (KinaseProfiler service)
T16 sequence (Q04759 whole entry): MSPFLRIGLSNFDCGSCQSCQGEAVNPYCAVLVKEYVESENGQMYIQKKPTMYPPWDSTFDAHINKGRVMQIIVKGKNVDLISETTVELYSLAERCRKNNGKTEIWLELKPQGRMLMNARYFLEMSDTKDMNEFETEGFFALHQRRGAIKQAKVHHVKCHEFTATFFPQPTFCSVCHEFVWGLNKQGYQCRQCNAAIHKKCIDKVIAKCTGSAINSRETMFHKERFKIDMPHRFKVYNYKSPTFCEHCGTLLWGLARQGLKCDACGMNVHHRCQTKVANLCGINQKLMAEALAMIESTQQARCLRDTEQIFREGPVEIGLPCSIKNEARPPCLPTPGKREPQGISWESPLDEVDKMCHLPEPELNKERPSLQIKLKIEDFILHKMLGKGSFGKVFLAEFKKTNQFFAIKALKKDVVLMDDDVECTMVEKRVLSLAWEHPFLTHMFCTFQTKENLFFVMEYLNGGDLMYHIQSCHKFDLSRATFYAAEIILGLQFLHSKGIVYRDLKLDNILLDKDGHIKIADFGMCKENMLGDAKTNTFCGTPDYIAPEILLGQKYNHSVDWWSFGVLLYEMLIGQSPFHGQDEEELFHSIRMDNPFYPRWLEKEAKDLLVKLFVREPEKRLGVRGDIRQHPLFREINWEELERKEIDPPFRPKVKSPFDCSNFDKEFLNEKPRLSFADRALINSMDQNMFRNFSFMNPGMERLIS

T9 sequence (P34947 whole entry): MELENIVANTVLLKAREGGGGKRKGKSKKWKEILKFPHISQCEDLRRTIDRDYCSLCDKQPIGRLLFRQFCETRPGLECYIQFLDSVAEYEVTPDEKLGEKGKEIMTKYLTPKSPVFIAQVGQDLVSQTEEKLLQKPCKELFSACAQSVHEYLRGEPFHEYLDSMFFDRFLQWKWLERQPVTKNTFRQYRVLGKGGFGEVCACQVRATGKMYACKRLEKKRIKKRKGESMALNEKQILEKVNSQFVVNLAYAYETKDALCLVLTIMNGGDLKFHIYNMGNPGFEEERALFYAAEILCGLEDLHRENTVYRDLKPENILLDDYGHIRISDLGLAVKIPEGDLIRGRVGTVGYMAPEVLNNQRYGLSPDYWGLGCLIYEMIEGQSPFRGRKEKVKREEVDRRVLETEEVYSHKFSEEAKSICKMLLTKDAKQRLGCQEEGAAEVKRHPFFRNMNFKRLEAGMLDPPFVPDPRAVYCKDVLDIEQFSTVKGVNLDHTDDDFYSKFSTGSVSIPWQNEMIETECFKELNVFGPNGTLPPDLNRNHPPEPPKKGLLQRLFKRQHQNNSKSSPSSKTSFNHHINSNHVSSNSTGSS
T4 sequence (P50750 whole entry): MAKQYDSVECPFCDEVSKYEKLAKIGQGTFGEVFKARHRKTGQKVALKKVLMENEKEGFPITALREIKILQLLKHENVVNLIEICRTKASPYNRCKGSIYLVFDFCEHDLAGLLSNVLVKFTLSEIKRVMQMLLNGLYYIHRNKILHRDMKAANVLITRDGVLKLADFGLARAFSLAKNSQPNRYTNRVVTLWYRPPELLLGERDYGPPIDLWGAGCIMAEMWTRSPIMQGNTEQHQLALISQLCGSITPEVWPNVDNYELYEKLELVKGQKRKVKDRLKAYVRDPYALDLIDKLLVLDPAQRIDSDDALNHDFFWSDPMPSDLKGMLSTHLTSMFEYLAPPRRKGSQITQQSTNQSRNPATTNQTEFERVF
T4 sequence (O60563 whole entry partner): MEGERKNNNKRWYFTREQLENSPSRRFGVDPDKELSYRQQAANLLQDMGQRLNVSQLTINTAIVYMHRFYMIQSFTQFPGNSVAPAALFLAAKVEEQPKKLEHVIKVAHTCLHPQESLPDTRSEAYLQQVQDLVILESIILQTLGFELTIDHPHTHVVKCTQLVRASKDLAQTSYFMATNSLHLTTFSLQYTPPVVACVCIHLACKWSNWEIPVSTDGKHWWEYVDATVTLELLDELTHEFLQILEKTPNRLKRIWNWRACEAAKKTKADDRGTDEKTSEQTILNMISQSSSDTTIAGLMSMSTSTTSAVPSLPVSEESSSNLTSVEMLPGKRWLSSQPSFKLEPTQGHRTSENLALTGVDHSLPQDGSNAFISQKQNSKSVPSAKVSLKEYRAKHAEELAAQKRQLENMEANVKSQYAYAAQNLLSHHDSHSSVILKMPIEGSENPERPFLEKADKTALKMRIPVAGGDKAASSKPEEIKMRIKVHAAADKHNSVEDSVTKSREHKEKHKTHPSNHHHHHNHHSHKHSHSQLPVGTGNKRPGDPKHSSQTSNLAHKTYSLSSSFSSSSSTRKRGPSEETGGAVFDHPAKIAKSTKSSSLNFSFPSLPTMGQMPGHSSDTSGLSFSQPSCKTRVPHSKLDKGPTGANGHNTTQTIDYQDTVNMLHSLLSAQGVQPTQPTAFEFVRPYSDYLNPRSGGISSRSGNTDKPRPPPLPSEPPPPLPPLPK
T2 sequence (Q9NRW4 whole entry): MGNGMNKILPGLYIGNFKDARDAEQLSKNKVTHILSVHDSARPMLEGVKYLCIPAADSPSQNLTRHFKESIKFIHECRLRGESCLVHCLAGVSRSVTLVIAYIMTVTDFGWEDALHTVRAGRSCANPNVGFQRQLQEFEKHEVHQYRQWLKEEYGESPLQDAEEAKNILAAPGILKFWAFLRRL
T15 sequence (P28482 whole entry): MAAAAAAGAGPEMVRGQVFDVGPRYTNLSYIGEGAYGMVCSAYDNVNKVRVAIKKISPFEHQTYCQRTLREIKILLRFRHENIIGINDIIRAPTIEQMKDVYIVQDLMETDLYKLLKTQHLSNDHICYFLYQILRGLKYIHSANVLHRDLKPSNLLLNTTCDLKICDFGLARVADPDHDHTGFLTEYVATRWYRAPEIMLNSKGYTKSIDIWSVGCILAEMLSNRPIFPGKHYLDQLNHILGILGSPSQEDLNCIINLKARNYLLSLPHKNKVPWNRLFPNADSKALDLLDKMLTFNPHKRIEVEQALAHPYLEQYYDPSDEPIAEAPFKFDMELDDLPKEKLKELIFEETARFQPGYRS
T3 sequence (P23467 23-1997): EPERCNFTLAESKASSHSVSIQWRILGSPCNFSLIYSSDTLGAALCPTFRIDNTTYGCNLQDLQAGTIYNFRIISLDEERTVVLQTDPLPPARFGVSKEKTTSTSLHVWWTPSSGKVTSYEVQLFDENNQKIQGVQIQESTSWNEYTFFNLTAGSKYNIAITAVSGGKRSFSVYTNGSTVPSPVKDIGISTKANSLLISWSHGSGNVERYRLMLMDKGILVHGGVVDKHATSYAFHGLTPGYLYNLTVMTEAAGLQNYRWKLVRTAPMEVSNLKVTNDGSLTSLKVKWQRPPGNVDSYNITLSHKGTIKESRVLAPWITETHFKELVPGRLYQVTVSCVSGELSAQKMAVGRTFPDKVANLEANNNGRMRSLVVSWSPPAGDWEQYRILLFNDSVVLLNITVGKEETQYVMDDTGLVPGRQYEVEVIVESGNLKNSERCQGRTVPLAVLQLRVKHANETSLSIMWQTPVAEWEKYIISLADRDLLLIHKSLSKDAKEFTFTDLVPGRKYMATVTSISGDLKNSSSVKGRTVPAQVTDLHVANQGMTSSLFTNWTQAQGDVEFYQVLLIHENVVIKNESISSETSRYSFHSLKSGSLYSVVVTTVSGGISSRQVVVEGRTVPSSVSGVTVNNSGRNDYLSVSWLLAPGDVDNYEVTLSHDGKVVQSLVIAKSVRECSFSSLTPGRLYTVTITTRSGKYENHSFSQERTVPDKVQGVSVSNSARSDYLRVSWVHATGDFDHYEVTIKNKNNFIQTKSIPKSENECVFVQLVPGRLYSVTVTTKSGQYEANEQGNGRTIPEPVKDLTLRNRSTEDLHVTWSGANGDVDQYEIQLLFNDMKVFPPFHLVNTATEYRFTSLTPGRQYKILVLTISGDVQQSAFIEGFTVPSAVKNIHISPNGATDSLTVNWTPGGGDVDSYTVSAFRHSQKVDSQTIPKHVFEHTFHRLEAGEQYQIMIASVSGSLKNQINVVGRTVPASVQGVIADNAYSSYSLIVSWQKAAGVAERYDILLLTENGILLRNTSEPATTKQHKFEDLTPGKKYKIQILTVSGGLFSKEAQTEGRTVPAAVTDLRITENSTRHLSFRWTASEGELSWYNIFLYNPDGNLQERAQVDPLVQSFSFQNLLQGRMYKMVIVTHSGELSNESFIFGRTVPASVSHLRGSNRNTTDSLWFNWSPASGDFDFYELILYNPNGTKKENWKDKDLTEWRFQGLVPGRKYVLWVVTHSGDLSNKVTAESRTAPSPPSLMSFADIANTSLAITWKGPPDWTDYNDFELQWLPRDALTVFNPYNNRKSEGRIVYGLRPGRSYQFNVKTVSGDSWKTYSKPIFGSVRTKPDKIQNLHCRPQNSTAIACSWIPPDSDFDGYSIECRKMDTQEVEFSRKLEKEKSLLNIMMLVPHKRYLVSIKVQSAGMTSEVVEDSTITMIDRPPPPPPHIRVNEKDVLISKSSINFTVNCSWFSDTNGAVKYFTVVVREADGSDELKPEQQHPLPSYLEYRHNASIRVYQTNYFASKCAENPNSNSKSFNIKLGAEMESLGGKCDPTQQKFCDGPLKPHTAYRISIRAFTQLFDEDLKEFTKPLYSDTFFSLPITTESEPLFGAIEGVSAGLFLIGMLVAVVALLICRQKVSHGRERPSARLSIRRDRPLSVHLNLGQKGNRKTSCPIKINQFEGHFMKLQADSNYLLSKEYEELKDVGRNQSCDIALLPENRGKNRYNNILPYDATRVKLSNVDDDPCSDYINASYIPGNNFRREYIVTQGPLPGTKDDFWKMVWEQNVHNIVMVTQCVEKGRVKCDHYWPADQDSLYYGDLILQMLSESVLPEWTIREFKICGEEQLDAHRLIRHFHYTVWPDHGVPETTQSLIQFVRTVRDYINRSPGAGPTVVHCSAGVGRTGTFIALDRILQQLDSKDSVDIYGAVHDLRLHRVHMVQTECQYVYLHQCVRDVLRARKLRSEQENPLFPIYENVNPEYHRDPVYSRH

Compound: COc1ccc(-n2c(SCc3nc(-c4ccc(C)cc4)no3)nnc2-c2ccncc2)cc1 [Compound 1]
- reduction in double axis formation (Xenopus embryos): 87%
- percentage of cells in S phase (SW480 cells; DMSO control 28.4%): 16.2%
- percentage of G1-phase cells (SW480 cells; DMSO control 37.3%): 46.4%
- reduction in tumor size, on average (SW480 colorectal cells; 150 mg/kg i.p. daily (5 days on, 2 off), 29 days): 33%
- reduction in tumor size, on average (SW480 colorectal cells; 300 mg/kg i.p. daily (5 days on, 2 off), 29 days): 35%
- adverse side effects, such as weight loss, during treatment (SW480 colorectal cells; 150 or 300 mg/kg i.p., 29 days): No obvious adverse side effects
- SP5 mRNA in tumors (real-time RT-PCR, relative to hGUSB) (SW480 colorectal cells; both 150 mg/kg and 300 mg/kg doses): down-regulated
- inhibition of kinase or phosphatase activity [1]: No extensive inhibition
- activity at 10 µM (CD45(h)): 108%
- activity at 10 µM (DUSP22(h)): 101%
- activity at 10 µM (PTPb(h)): 106%
- Activity (%) (YopH(y)): 94%
- activity at 10 µM (CDK9/cyclin T1(h)): 115%
- activity at 10 µM (CK2(h)): 105%
- activity at 10 µM (CK2α2(h)): 104%
- activity at 10 µM (EphA5(h)): 99%
- activity at 10 µM (EphB4(h)): 105%
- activity at 10 µM (GRK5(h)): 104%
- activity at 10 µM (GSK3β(h)): 90%
- activity at 10 µM (IGF-1R(h)): 149%
- activity at 10 µM (IKKα(h)): 109%
- activity at 10 µM (JAK2(h)): 118%
- activity at 10 µM (KDR(h)): 104%
- activity at 10 µM (MAPK2(h)): 105%
- activity at 10 µM (PKCθ(h)): 109%
